Kd data for eleven compounds are collected here from US6225494A, “Trisubstituted phenyl derivatives having retinoid agonist or inverse agonist type biological activity” (Allergan Sales, Inc., priority 1999, dated 2001).

Each structure is given as a SMILES string.

Common to all, as to test: Ligand binding assay
Assay [1] deals with T1, RARα (Homo sapiens, UniProt P10276).
T1 sequence (P10276 1-462): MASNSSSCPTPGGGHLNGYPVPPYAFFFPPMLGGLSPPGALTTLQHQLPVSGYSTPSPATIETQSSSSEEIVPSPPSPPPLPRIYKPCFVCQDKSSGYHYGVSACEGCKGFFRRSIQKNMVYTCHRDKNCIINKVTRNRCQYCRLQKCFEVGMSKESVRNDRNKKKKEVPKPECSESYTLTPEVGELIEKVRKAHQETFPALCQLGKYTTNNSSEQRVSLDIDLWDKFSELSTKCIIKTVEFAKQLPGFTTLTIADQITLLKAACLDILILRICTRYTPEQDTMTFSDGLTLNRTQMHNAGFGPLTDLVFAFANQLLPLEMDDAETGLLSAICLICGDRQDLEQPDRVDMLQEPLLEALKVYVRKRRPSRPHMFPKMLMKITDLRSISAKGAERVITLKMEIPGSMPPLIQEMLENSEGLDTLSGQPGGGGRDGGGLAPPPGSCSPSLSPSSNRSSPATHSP
The source says:
(§1) Other assays described below, measure the ability of the compounds of the present invention to bind to, and/or activate various retinoid receptor subtypes. When in these assays a compound binds to a given receptor subtype and activates the transcription of a reporter gene through that subtype, then the compound is considered an agonist of that receptor subtype. […] In the below described assays the ability of the compounds to bind to RARα, RARβ, RARγ, RXRα, RXRβ and RXR.tau. receptors, and the ability or inability of the compounds to activate transcription of a reporter gene through these receptor subtypes can be tested.
(§2) A holoreceptor transactivation assay and a ligand binding assay which measure the antagonist/agonist like activity of the compounds of the invention, or their ability to bind to the several retinoid receptor subtypes, respectively, are described in published PCT Application No. WO WO93/11755 (particularly on pages 30-33 and 37-41) published on Jun. 24, 1993, the specification of which is also incorporated herein by reference. A detailed experimental procedure for holoreceptor transactivations has been described by Heyman et aL Cell 68, 397-406, (1992); Allegretto et aL J. Biol. Chem. 268, 26625-26633, and Mangelsdorf et aL The Retinoids: Biology, Chemistry and Medicine, pp 319-349, Raven Press Ltd., New York, which are expressly incorporated herein by reference. The results obtained in this assay are expressed in EC50 numbers, as they are also in the chimeric receptor transactivation assay. The results of ligand binding assay are expressed in Kd numbers. (See Cheng et aL Biochemical Pharmacology Vol. 22 pp 3099-3108, expressly incorporated herein by reference.)

Assay [2] addresses T2, RARβ (Homo sapiens, UniProt P10826).
T2 sequence (P10826 1-448 isoform P10826-2): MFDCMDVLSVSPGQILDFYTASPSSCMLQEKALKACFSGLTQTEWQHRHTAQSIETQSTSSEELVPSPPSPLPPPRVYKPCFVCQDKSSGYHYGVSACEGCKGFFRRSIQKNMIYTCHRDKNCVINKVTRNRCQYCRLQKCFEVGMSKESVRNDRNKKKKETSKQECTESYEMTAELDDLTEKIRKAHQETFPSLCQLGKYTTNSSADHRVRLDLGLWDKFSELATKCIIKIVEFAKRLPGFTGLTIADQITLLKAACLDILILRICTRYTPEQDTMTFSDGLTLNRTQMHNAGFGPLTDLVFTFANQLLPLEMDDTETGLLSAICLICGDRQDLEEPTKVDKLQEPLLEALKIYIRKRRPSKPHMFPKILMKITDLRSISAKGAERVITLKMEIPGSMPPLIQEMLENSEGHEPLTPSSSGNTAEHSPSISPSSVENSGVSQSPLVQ
As to conditions: read-out: Kd RABβ.
Description: as §1, §2

The target in assay [3] is T3, RARγ (Homo sapiens, UniProt P13631).
T3 sequence (P13631 1-454): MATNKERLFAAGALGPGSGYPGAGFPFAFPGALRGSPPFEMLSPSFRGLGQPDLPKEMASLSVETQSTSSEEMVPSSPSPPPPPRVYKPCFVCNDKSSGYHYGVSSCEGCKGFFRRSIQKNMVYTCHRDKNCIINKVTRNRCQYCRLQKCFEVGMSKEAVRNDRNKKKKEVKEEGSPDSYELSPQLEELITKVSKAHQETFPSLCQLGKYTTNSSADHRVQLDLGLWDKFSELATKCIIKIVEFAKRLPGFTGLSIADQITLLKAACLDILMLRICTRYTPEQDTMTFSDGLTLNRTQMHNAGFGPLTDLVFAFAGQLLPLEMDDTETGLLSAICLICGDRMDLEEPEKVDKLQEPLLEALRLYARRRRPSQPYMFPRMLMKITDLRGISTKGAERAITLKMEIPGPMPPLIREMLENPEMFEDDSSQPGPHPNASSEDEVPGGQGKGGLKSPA
Description: as §1, §2

For orientation: Kd means the free concentration of one partner at which half of the binding sites on the other are occupied at equilibrium, for simple one-to-one binding. Consider `Cc1ccc(C(=O)c2cc(C#Cc3ccc(C(=O)O)cc3)ccc2O)cc1` [Compound 5, 4-[[4'-hydroxy-3'-(4"-methyl)benzoyl]phenylethynyl]benzoic acid], for which the Kd amounted to 339 nM in assay [1], 98 nM in assay [2] and 897 nM in assay [3].

As to `C=C(c1ccc(C)cc1)c1cc(C#Cc2ccc(C(=O)O)cc2)ccc1O` [Compound 8, 4-[[4'-Hydroxy-3'-(1-p-tolyl)vinyl]phenylethynyl]benzoic acid], the Kd in assay [1] turned out to be 8200 nM; in assay [2], 1320 nM; in assay [3], 5220 nM.

Consider `C=C(c1ccc(C)cc1)c1cc(C#Cc2ccc(C(=O)O)cc2)ccc1OCOC` [Compound 9, 4-[[4'-methoxymethoxy-3'-(1-p-tolyl)vinyl]phenylethynyl]benzoic acid], for which the Kd amounted to 942 nM in assay [1], 152 nM in assay [2] and 730 nM in assay [3].

With `C=C(c1ccc(C)cc1)c1cc(C#Cc2ccc(C(=O)O)cc2)ccc1OC` [Compound 12, 4-[[4'-Methoxy-3'-(1-p-tolyl)vinyl]phenylethynyl]benzoic acid], the Kd amounted to 1450 nM in assay [1], 193 nM in assay [2] and 394 nM in assay [3].

Turning to `COCOc1ccc(C#Cc2ccc(C(=O)O)cc2)cc1C(=O)c1ccc(C)cc1` [Compound 13], the results for the Kd in assay [1], in assay [2] and in assay [3] were 1190 nM, 487 nM and 902 nM, respectively.

Turning to `C=C(c1ccc(C)cc1)c1cccc(C#Cc2ccc(C(=O)O)cc2)c1` [Compound 20, 4-[[3'-(1-p-Tolyl)vinyl]phenylethynyl]benzoic acid], the figures for the Kd in assay [1], in assay [2] and in assay [3] were above 1000 nM, 224 nM and above 1000 nM, respectively.

On to `COc1ccc(C#Cc2ccc(C(=O)O)cc2)cc1C(=O)c1ccc(C)cc1` [Compound 22, 4-[[4'-methoxy-3'-(4"-methyl)benzoyl]phenylethynyl]benzoic acid], for which the dissociation constant (Kd) was 1600 nM in assay [1], 763 nM in assay [2] and 1500 nM in assay [3].

Regarding `Cc1ccc(C(=O)c2cc(C#Cc3ccc(C(=O)O)c(F)c3)c(C)cc2O)cc1` [Compound 25, 4-[[4'-Hydroxy-2'-methyl-5'-(4"-methyl)benzoyl]phenylethynyl]-2-fluoro-benzoic acid], the Kd was found to be 1150 nM in assay [1], 217 nM in assay [2] and 1960 nM in assay [3].

On to `C=C(c1ccc(C)cc1)c1cc(C#Cc2ccc(C(=O)O)cc2)ccc1OC(C)C` [Compound 28, 4-[[4'-Isopropoxy-3'-(1-p-tolyl)vinyl]phenylethynyl]benzoic acid], for which the Kd in assay [1] amounted to 2090 nM; in assay [2], 538 nM; in assay [3], 949 nM.

As to `C=C(c1ccc(C)cc1)c1cc(C#Cc2ccc(C(=O)O)c(F)c2)ccc1OC(C)C` [Compound 29, 4-[[4'-Isopropoxy-3'-(1-p-tolyl)vinyl]phenylethynyl]-2-fluoro-benzoic acid], the values for the Kd in assay [1], in assay [2] and in assay [3] were 1160 nM, 233 nM and 817 nM, respectively.

For the compound `C=C(c1cccc(C)c1)c1cc(C#Cc2ccc(C(=O)O)cc2)ccc1OC(C)C` [Compound 31, 4-[[4'-Isopropoxy-3'-(1-m-tolyl)vinyl]phenylethynyl]benzoic acid], the Kd in assay [1] was 3290 nM; in assay [2], 488 nM; in assay [3], 366 nM.
